Measured values: the supplement of paper PMC10307832

Columns and labels:
[1] = compound: CC1=CC(=CC=C1)NC2=NC(=CS2)C3=CC=NC=C3 + COc1cc2c(Oc3ccc(NC(=O)C4(C(=O)Nc5ccc(F)cc5)CC4)cc3F)ccnc2cc1OCCCN1CCOCC1 [Foretinib] (partner 0.25 µM); test: relative viability (nuclei count vs DMSO), 5 days (fraction); higher = more cells survive
Method in brief: (§1)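 One day after seeding in 1536-well plates, lung cancer cell lines were dosed by pin tool. Dosing was either single-drug or a fixed anchor-drug dose plus five library-drug doses (not always all listed) in √10 steps. After 5 days, nuclei were stained in one fix-and-stain step and counted on 4× images, and relative viability is the nuclei count of treated wells over that of vehicle wells, given as the median of duplicate plates.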

Masitinib + Tozasertib = compound: Cc1ccc(NC(=O)c2ccc(CN3CCN(C)CC3)cc2)cc1Nc1nc(-c2cccnc2)cs1 [Masitinib] + Cc1cc(Nc2cc(N3CCN(C)CC3)nc(Sc3ccc(NC(=O)C4CC4)cc3)n2)n[nH]1 [Tozasertib] (partner 0.1 µM); test: as above
Method in brief: as §1

| Cell Line | relative viability ([1]; first compound 0.08 µM) | relative viability ([1]; first compound 0.253 µM) | relative viability ([1]; first compound 0.8 µM) | relative viability ([1]; first compound 2.53 µM) | relative viability ([1]; first compound 8 µM) | relative viability (Masitinib + Tozasertib; first compound 0.01 µM) | relative viability (Masitinib + Tozasertib; first compound 0.03162 µM) | relative viability (Masitinib + Tozasertib; first compound 0.1 µM) | relative viability (Masitinib + Tozasertib; first compound 0.3162 µM) | relative viability (Masitinib + Tozasertib; first compound 1 µM) |
| --- | --- | --- | --- | --- | --- | --- | --- | --- | --- | --- |
| NCI-H2087 | 0.996 | 1.12 | 0.994 | 1.05 | 0.688 | 0.317 | 0.22 | 0.239 | 0.211 | 0.236 |
| NCI-H1755 | 0.862 | 0.835 | 0.823 | 0.758 | 0.664 | – | 0.573 | 0.57 | 0.57 | 0.454 |
| NCI-H2228 | 0.705 | 0.955 | 0.766 | 0.893 | 0.892 | 0.242 | 0.199 | 0.232 | 0.217 | 0.221 |
| EMC-BAC-2 | 0.888 | 0.993 | 1 | 0.948 | 0.879 | 0.273 | 0.271 | 0.287 | 0.264 | 0.261 |
| NCI-H2009 | 1.2 | 1.11 | 1.14 | 1.22 | 1.18 | 0.762 | 0.71 | 0.744 | 0.817 | 0.658 |
| NCI-H596 | 0.804 | 0.999 | 0.728 | 0.805 | 0.838 | 0.972 | 0.73 | 1.07 | 1.08 | 0.716 |
| NCI-H650 | 0.955 | 0.98 | 1.08 | 1.02 | 1.02 | 0.642 | 0.732 | 0.717 | 0.745 | 0.665 |
| NCI-H1915 | 1.05 | 1.1 | 1.06 | 1.07 | 0.977 | – | 0.453 | – | 0.44 | 0.387 |
| SW 1573 | 0.818 | 0.872 | 0.97 | 0.986 | 0.869 | 0.133 | 0.144 | 0.213 | 0.15 | 0.135 |
| ChaGo-K-1 | 0.977 | 0.938 | 0.931 | 0.902 | 0.85 | 0.205 | 0.202 | 0.21 | 0.192 | 0.21 |
| NCI-H522 | – | – | – | – | – | 0.589 | – | 0.631 | 0.615 | 0.582 |
| NCI-H1355 | 0.882 | 0.749 | 0.663 | 0.685 | 0.71 | 0.534 | 0.469 | 0.561 | 0.384 | 0.394 |
| NCI-H1651 | 0.825 | 0.736 | 0.72 | 0.917 | 0.862 | 0.743 | 0.68 | 0.685 | 0.484 | 0.583 |
| NCI-H2023 | 0.81 | 0.712 | 0.778 | 1.09 | 0.681 | 0.327 | 0.356 | 0.279 | 0.184 | 0.189 |
| LOU-NH91 | 0.794 | 0.853 | 0.807 | 0.896 | 0.903 | 0.641 | 0.666 | 0.728 | 0.588 | 0.626 |
| NCI-H3122 | 0.885 | 0.967 | 0.984 | 0.971 | 1.01 | – | 0.502 | – | 0.387 | 0.417 |
| NCI-H1648 | – | – | – | – | – | 0.477 | – | 0.452 | 0.397 | 0.431 |
| LCLC-97TM1 | 0.966 | 0.906 | 0.841 | 1.02 | 0.929 | – | 0.38 | 0.261 | 0.247 | 0.286 |
